Results as given in PubChem BioAssay (NCI).
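These data come from cells grown in 96-well plates and exposed to compound for 48 hours at five concentrations. At the GI50, growth is halved. At the TGI there is no net growth.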

How the values were obtained:
Experiment in all cases: NCI-60 cell line screen, 48 h
786-0 renal = system: 786-0 renal
A498 renal = system: A498 renal
A549 NSCLC = system: A549 NSCLC
ACHN renal = system: ACHN renal
BT-549 breast = system: BT-549 breast
CAKI-1 renal = system: CAKI-1 renal
CCRF-CEM leukemia = system: CCRF-CEM leukemia
COLO 205 colon = system: COLO 205 colon
DU-145 prostate = system: DU-145 prostate
EKVX NSCLC = system: EKVX NSCLC
HCT-116 colon = system: HCT-116 colon
HCT-15 colon = system: HCT-15 colon
HL-60(TB) leukemia = system: HL-60(TB) leukemia
HOP-62 NSCLC = system: HOP-62 NSCLC
HOP-92 NSCLC = system: HOP-92 NSCLC
HS 578T breast = system: HS 578T breast
HT29 colon = system: HT29 colon
IGROV1 ovarian = system: IGROV1 ovarian
KM12 colon = system: KM12 colon
LOX IMVI melanoma = system: LOX IMVI melanoma
M14 melanoma = system: M14 melanoma
MALME-3M melanoma = system: MALME-3M melanoma
MCF7 breast = system: MCF7 breast
MDA-MB-231 breast = system: MDA-MB-231 breast
MDA-MB-435 = system: MDA-MB-435
MDA-N = system: MDA-N
MOLT-4 leukemia = system: MOLT-4 leukemia
NCI-H226 lung = system: NCI-H226 lung
NCI-H23 lung = system: NCI-H23 lung
NCI-H460 lung = system: NCI-H460 lung
NCI/ADR-RES ovarian = system: NCI/ADR-RES ovarian
OVCAR-3 ovarian = system: OVCAR-3 ovarian
OVCAR-5 ovarian = system: OVCAR-5 ovarian
OVCAR-8 ovarian = system: OVCAR-8 ovarian
PC-3 prostate = system: PC-3 prostate
RPMI-8226 leukemia = system: RPMI-8226 leukemia
SF-268 CNS = system: SF-268 CNS
SF-295 CNS = system: SF-295 CNS
SF-539 CNS = system: SF-539 CNS
SK-MEL-28 melanoma = system: SK-MEL-28 melanoma
SK-MEL-5 melanoma = system: SK-MEL-5 melanoma
SK-OV-3 ovarian = system: SK-OV-3 ovarian
SN12C renal = system: SN12C renal
SNB-19 CNS = system: SNB-19 CNS
SR leukemia = system: SR leukemia
SW-620 colon = system: SW-620 colon
T-47D breast = system: T-47D breast
TK-10 renal = system: TK-10 renal
U251 CNS = system: U251 CNS
UACC-257 melanoma = system: UACC-257 melanoma
UO-31 renal = system: UO-31 renal

Structure (SMILES): COC(=O)c1cc2c(o1)-c1nccc3c1c(nc1ccccc13)C2=O
- GI50 (786-0 renal): 2.93 µM
- TGI (786-0 renal): 14 µM
- GI50 (A498 renal): 18 µM
- TGI (A498 renal): 39.1 µM
- GI50 (A549 NSCLC): 4.66 µM
- TGI (A549 NSCLC): 21.1 µM
- GI50 (ACHN renal): 2.27 µM
- TGI (ACHN renal): 14.7 µM
- GI50 (BT-549 breast): 4.05 µM
- TGI (BT-549 breast): 18.2 µM
- GI50 (CAKI-1 renal): 9.48 µM
- TGI (CAKI-1 renal): 32.3 µM
- GI50 (CCRF-CEM leukemia): 3.79 µM
- TGI (CCRF-CEM leukemia): 15.5 µM
- GI50 (COLO 205 colon): 14.9 µM
- TGI (COLO 205 colon): 29.3 µM
- GI50 (DU-145 prostate): 4.26 µM
- TGI (DU-145 prostate): 22.9 µM
- GI50 (EKVX NSCLC): 14.9 µM
- TGI (EKVX NSCLC): 35 µM
- GI50 (HCT-116 colon): 1.92 µM
- TGI (HCT-116 colon): 5.95 µM
- GI50 (HCT-15 colon): 1.57 µM
- TGI (HCT-15 colon): 11.1 µM
- GI50 (HL-60(TB) leukemia): 2 µM
- TGI (HL-60(TB) leukemia): 4.76 µM
- GI50 (HOP-62 NSCLC): 1.4 µM
- TGI (HOP-62 NSCLC): 11 µM
- GI50 (HOP-92 NSCLC): 1.96 µM
- TGI (HOP-92 NSCLC): 17.7 µM
- GI50 (HS 578T breast): 14.2 µM
- TGI (HS 578T breast): 37.1 µM
- GI50 (HT29 colon): 8.01 µM
- TGI (HT29 colon): 24.8 µM
- GI50 (IGROV1 ovarian): 1.4 µM
- TGI (IGROV1 ovarian): 4.42 µM
- GI50 (KM12 colon): 3.77 µM
- TGI (KM12 colon): 16.7 µM
- GI50 (LOX IMVI melanoma): 3.61 µM
- TGI (LOX IMVI melanoma): 16.2 µM
- GI50 (M14 melanoma): 2.31 µM
- TGI (M14 melanoma): 10.2 µM
- GI50 (MALME-3M melanoma): 1.89 µM
- TGI (MALME-3M melanoma): 5.96 µM
- GI50 (MCF7 breast): 2.07 µM
- TGI (MCF7 breast): 15.6 µM
- GI50 (MDA-MB-231 breast): 5.1 µM
- TGI (MDA-MB-231 breast): 39.5 µM
- GI50 (MDA-MB-435): 0.538 µM
- TGI (MDA-MB-435): 1.81 µM
- GI50 (MDA-N): 0.691 µM
- TGI (MDA-N): 2.22 µM
- GI50 (MOLT-4 leukemia): 2.64 µM
- TGI (MOLT-4 leukemia): 7.28 µM
- GI50 (NCI-H226 lung): 8.08 µM
- TGI (NCI-H226 lung): 25.4 µM
- GI50 (NCI-H23 lung): 5.66 µM
- TGI (NCI-H23 lung): 26.7 µM
- GI50 (NCI-H460 lung): 12.2 µM
- TGI (NCI-H460 lung): 35 µM
- GI50 (NCI/ADR-RES ovarian): 2.11 µM
- TGI (NCI/ADR-RES ovarian): 5.68 µM
- GI50 (OVCAR-3 ovarian): 1.26 µM
- TGI (OVCAR-3 ovarian): 4.37 µM
- GI50 (OVCAR-5 ovarian): 17.3 µM
- TGI (OVCAR-5 ovarian): 34.3 µM
- GI50 (OVCAR-8 ovarian): 2.1 µM
- TGI (OVCAR-8 ovarian): 6.38 µM
- GI50 (PC-3 prostate): 3.41 µM
- TGI (PC-3 prostate): 29.6 µM
- GI50 (RPMI-8226 leukemia): 2.03 µM
- TGI (RPMI-8226 leukemia): 18 µM
- GI50 (SF-268 CNS): 2.82 µM
- TGI (SF-268 CNS): 24.2 µM
- GI50 (SF-295 CNS): 4.51 µM
- TGI (SF-295 CNS): 18.3 µM
- GI50 (SF-539 CNS): 2.69 µM
- TGI (SF-539 CNS): 9.7 µM
- GI50 (SK-MEL-28 melanoma): 11.5 µM
- TGI (SK-MEL-28 melanoma): 25.4 µM
- GI50 (SK-MEL-5 melanoma): 1.2 µM
- TGI (SK-MEL-5 melanoma): 4.69 µM
- GI50 (SK-OV-3 ovarian): 10.7 µM
- TGI (SK-OV-3 ovarian): 39.8 µM
- GI50 (SN12C renal): 4.04 µM
- TGI (SN12C renal): 18.1 µM
- GI50 (SNB-19 CNS): 2.28 µM
- TGI (SNB-19 CNS): 6.94 µM
- GI50 (SR leukemia): 0.519 µM
- TGI (SR leukemia): 2.51 µM
- GI50 (SW-620 colon): 3.78 µM
- TGI (SW-620 colon): 17.5 µM
- GI50 (T-47D breast): 1.88 µM
- TGI (T-47D breast): 6.9 µM
- GI50 (TK-10 renal): 22.9 µM
- TGI (TK-10 renal): 52.2 µM
- GI50 (U251 CNS): 5.05 µM
- TGI (U251 CNS): 38.9 µM
- GI50 (UACC-257 melanoma): 3.68 µM
- TGI (UACC-257 melanoma): 15.3 µM
- GI50 (UO-31 renal): 5.49 µM
- TGI (UO-31 renal): 24.3 µM
